{
  "source": "patent US20080145313A1",
  "about": "“Compositions and Methods for the Treatment and Prevention of Neoplastic Disorders” (Genesis Research & Development Corporation Limited, priority 2006, published 2008)",
  "key": {"HCT-116 p53 null cells": {"system": "HCT-116 p53 null cells", "experiment": "Growth inhibition of siRNA-transfected p53 null HCT-116 cells, SYBR Green I DNA content", "assay_type": "cell-based", "method": "(§1) A549 cells (human lung cancer cell line; ATCC No. CCL-185), SK-MeI-5 cells (human melanoma cell line; ATCC No. HTB-70), MCF-7 cells (human adenocarcinoma cell line; ATCC No. HTB-22), HCT-116 cells (colorectal carcinoma; ATCC CCL-247) and HCT-116 p53 null cells (derived from ATCC No. CCL-247; Bunz et al., Science 282:1497-1501, 1998) were cultured in RPMI 1640 medium with 10% v/v heat-inactivated fetal calf serum (FCS). Cells were seeded at a density of 5×10^4 cells/cm^2 in multi-well tissue culture plates. Sequences of Stealth™ siRNA duplexes (Invitrogen) targeting human ribonucleotide reductase subunit 1 (SEQ ID NO: 22) and subunit 2 (SEQ ID NO; 38) are given in SEQ ID NO: 4830-4832 (DNA), and SEQ ID NO: 5136-5138 (RNA) for RRM1, and SEQ ID NO: 5306-5308 (DNA), and SEQ ID NO: 5303-5305 (RNA) for RRM2. siRNAs were transfected at different concentrations into cells using Lipofectamine™ RNAiMAX transfection reagent (Invitrogen). Non-specific siRNA (SEQ ID NO: 4804 and 4805 (DNA), and SEQ ID NO: 5301 and 5302 (RNA)) were used as controls. The cellular DNA content was measured using a SYBR Green I-based fluorometric assay at 24, 48, 72 and 96 hours after transfection (120 hours for the MCF-7 cells), as follows. At the indicated time points following reverse transfection, cells were harvested and frozen at −80° C. overnight. Cells were thawed and cell lysis buffer (phosphate-buffered saline (PBS) containing 1% Triton X-100, pH 7) and SYBR Green I (1:10^5 V/V; Invitrogen) was added to the wells and incubated overnight in the dark at 4° C.\n(§2) The following day, cell lysates were mixed thoroughly, and DNA fluorescence was measured with a Wallac Victor^2 plate reader (Turku, Finland) set at an excitation frequency of 485 nm and measuring emission at 535 nm.\n(§3) To determine the effect of the p53-status of cells on RRM1 and RRM2 knockdown, growth inhibition of wild type (wt) HCT-116 and p53 null HCT-116 cells by RRM1 and RRM2-targeted siRNA were determined. Cells were reverse transfected with 1.0 and 10 nM RRM1-3 (SEQ ID NO: 4832 (DNA), and SEQ ID NO: 5138 (RNA)), 1.0 and 10 nM RRM2-2 (SEQ ID NO: 5307 (DNA), and SEQ ID NO: 5304 (RNA)) or 10 nM control siRNA (SEQ ID NO: 4804 (DNA), and SEQ ID NO: 5301 (RNA)), and growth measured daily for up to 4 days post transfection.\n(§4) siRNA-mediated RNAi was also determined on a panel of different cell lines. A549, SK-MeI-5, wt HCT-116, HCT-116−/−p53 and MCF-7 cells were transfected with 10 nM siRNAs targeting YBX-1 and growth inhibition determined as described above. The YBX1 siRNAs are given in SEQ ID NO: 4981 to 4985 (DNA) and SEQ ID NO: 5276-5280 (RNA). A non-specific siRNA (SEQ ID NO: 4804 (DNA) and SEQ ID NO: 5301 (RNA)) was used as control. Growth inhibition by the siRNAs, given in Table 14, was standardized against the inhibition obtained with the control siRNA."}, "wt HCT-116 cells": {"system": "wt HCT-116 cells", "experiment": "Growth inhibition of siRNA-transfected wt HCT-116 cells, SYBR Green I DNA content", "assay_type": "cell-based", "method": "as §1, §2, §3, §4\nHCT-116 and A549 cells were transfected with 0.1, 1.0 and 10 nM siRNA targeting TYMS and DHFR (SEQ ID NO: 4833 to 4838 (DNA), and SEQ ID NO: 5139-5144 (RNA)) using Lipofectamine™ RNAiMAX and incubated for 96 h, in either normal fetal calf serum or serum dialyzed to remove low molecular weight molecules (cut-off 10 kDa). Growth of cells was measured by measuring the total DNA content per well using the SYBR Green assay as described above, and values are given as the percentage of the averaged control values. […] Inhibition increased with increasing siRNA concentration, which was not observed with a non-specific control siRNA. […]"}, "A549 cells": {"system": "A549 cells", "experiment": "Growth inhibition of siRNA-transfected A549 cells, SYBR Green I DNA content", "assay_type": "cell-based, human", "method_in_brief": "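Growth read-out: cellular DNA quantified with SYBR Green I (485/535 nm) 96 h after transfection, cells frozen, thawed and lysed in PBS/1% Triton X-100, pH 7. Cells (A549, 5×10^3 cells/cm^2) received 10 nM siRNA by RNAiMAX; non-specific siRNA served as control; triplicate wells averaged.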"}, "HCT-15 cells": {"system": "HCT-15 cells", "experiment": "Effect of MDR1 knockdown on drug resistance of HCT-15 cells", "assay_type": "cell-based", "details": "10 nM siRNA; drug 72 h; compared with control siRNA", "method": "HCT-15 cells, which express high endogenous levels of MDR1, were reverse transfected with MDR1-specific (SEQ ID NO: 4976 (DNA), and SEQ ID NO: 5271 (RNA)) or control siRNAs (SEQ ID NO: 4804 (DNA), and SEQ ID NO: 5301 (RNA)) at a final concentration of 10 nM. Lipofectamine-siRNA complexes were made by adding 0.3 μl Lipofectamine RNAiMAX in 10 μl RPMI to an equivalent volume of medium containing siRNA, such that the final siRNA concentration would be 10 nM. This mixture was incubated at room temperature for 20 minutes to allow complexes to form, after which time 1,500 HCT-15 cells in 100 μl RPMI supplemented with 10% FCS were added to the wells. […] Drugs used were Doxorubicin (Sigma, St. Louis Mo.), Paclitaxel (Invitrogen) and Etoposide (Sigma, St. Louis Mo.). At the conclusion of the assay, medium was removed and growth inhibition determined as described above."}, "[1]": {"system": "target transcript mRNA in A549 cells", "experiment": "Level of mRNA of target transcript in A549 cells by quantitative RT-PCR (Tables 12 and 13)", "assay_type": "cell-based, human", "details": "24 h post-transfection", "method_in_brief": "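Target mRNA was measured by SYBR Green quantitative RT-PCR using random-primed cDNA, normalised to HPRT and Lamin. Samples came from A549 cells 24 h post-transfection with 0.1, 1.0 or 10 nM siRNA.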"}, "SK-Mel-5 cells": {"system": "SK-Mel-5 cells", "experiment": "Growth inhibition of siRNA-transfected SK-Mel-5 cells, SYBR Green I DNA content", "assay_type": "cell-based, human", "details": "1 nM p53 siRNA with 1 nM YBX1 siRNA SEQ ID NO: 4982", "method": "as §1, §2\nsiRNA-mediated inhibition of cancer cell growth using siRNA targeting the YBX1 gene (SEQ ID NO: 92) was determined as follows. SK-MeI-5 cells were cultured in RPMI 1640 medium with 10% v/v heat-inactivated fetal calf serum. Cells were cultured as described above and reverse transfected with 0.1, 1.0, 10 and 40 nM (final concentration) of a pool of YBX1-targeting siRNAs (SEQ ID NO: 4982 and 4983 (DNA), and SEQ ID NO: 5277 and 5278 (RNA); referred to as 994 and 995 in FIG. 19) or a non-specific control (SEQ ID NO: 4804 (DNA), and SEQ ID NO: 5301 (RNA); referred to as Stealth 81 ctrl in FIG. 19), and cell growth determined after 120 h by measuring DNA fluorescence with a Wallac Victor^2 plate reader (Turku, Finland) set at an excitation frequency of 485 nm and measuring emission at 535 nm. Growth inhibition by the siRNA pool was standardized against the inhibition obtained with the control siRNAs.\nas §4"}, "[2]": {"details": "1 nM p53 siRNA with 1 nM YBX1 siRNA SEQ ID NO: 4982"}},
  "data": [
    {"substance": "SEQ ID NO: 4832: Stealth siRNA targeting RRM1 (chain 1 ATTCAAAGATGTCTAAATGCCAAGG; chain 2 AUUCAAAGAUGUCUAAAUGCCAAGG; Stealth siRNA, chemical pattern not given here; one strand in two spellings)", "values": [
      {"measurement": "growth inhibition, p53 null HCT-116", "setting": "HCT-116 p53 null cells; 1.0 and 10 nM siRNA, up to 4 days, compared with p53 wt", "result": "equally growth inhibitory"},
      {"measurement": "growth inhibition, p53 wt HCT-116", "setting": "wt HCT-116 cells; 1.0 and 10 nM siRNA, up to 4 days, compared with p53 null", "result": "equally growth inhibitory"},
      {"measurement": "Growth Inhibition in A549 cells", "setting": "A549 cells; 10 nM siRNA, DNA content 96 hours after transfection", "result": "++ (inhibits by at least 75%)"},
      {"measurement": "duration of growth inhibition post-transfection, A549", "setting": "A549 cells; 1 and 10 nM siRNA, measured daily for up to ten days", "result": "at least 10 days"}
    ]},
    {"substance": "SEQ ID NO: 4976: MDR1-specific siRNA (ABCB1) (chain 1 TTAGCTTCCAACCACGTGTAAATCC; chain 2 UUAGCUUCCAACCACGUGUAAAUCC; chemistry not given here; one strand in two spellings)", "values": [
      {"measurement": "sensitivity to doxorubicin, HCT-15", "setting": "HCT-15 cells", "result": "more sensitive"},
      {"measurement": "sensitivity to etoposide, HCT-15", "setting": "HCT-15 cells", "result": "more sensitive"},
      {"measurement": "sensitivity to paclitaxel, HCT-15", "setting": "HCT-15 cells", "result": "more sensitive"},
      {"measurement": "mRNA knockdown of transporter gene target transcript, 0.1 nM", "setting": "[1]; 0.1 nM siRNA", "result": "− (<50% mRNA knockdown)"},
      {"measurement": "mRNA knockdown of transporter gene target transcript, 1 nM", "setting": "[1]; 1 nM siRNA", "result": "− (<50% mRNA knockdown)"},
      {"measurement": "Growth Inhibition in A549 cells by 10 nM siRNA", "setting": "A549 cells; A549 cells, 10 nM siRNA, DNA content 96 hours after transfection, transporter gene targets", "result": "− (no growth inhibition)"}
    ]},
    {"substance": "SEQ ID NO: 5110: p53-targeting Stealth siRNA (chain 1 GCCAAGTCTGTGACTTGCACGTACT; chain 2 GCCAAGUCUGUGACUUGCACGUACU; Stealth siRNA, chemical pattern not given here; one strand in two spellings) [reference compound]", "values": [
      {"measurement": "effect of p53 siRNA co-transfection on YBX1 siRNA-mediated growth inhibition, HCT-116−/−p53", "setting": "HCT-116 p53 null cells; [2]", "result": "only partial abrogation of growth inhibition"},
      {"measurement": "effect of p53 siRNA co-transfection on YBX1 siRNA-mediated growth inhibition, wt HCT-116", "setting": "wt HCT-116 cells; [2]", "result": "only partial abrogation of growth inhibition"},
      {"measurement": "effect of p53 siRNA co-transfection on YBX1 siRNA-mediated growth inhibition, A549", "setting": "A549 cells; 5 nM p53 siRNA with 5 nM YBX1 siRNA SEQ ID NO: 4982", "result": "only partial abrogation of growth inhibition"},
      {"measurement": "effect of p53 siRNA co-transfection on YBX1 siRNA-mediated growth inhibition, SK-MeI-5", "setting": "SK-Mel-5 cells", "result": "completely ablated growth inhibition"}
    ]}
  ]
}
